{"source": "ChEMBL document CHEMBL1137017", "about": "“In vitro antiviral activity and cross-resistance profile of PL-100, a novel protease inhibitor of human immunodeficiency virus type 1” (Antimicrob Agents Chemother, 2007)", "key": {"[1]": {"test_system": "Human immunodeficiency virus 1", "assay": "Resistance index, ratio of EC50 for SQV-resistant HIV1 SaqR carrying G48V/L90MV mutation to EC50 for wild type HIV1 NL4-3 in HEK293 cells after 48 hrs by replication-deffective luciferase reporter gene-based phenotypic assay", "type": "functional"}, "[2]": {"assay": "Inhibition of pig pepsin", "parameters": "species or system Sus scrofa"}, "[3]": {"biological_target": "Cathepsin D (Homo sapiens, UniProt P07339)", "sequence (P07339 65-162 limits assumed)": "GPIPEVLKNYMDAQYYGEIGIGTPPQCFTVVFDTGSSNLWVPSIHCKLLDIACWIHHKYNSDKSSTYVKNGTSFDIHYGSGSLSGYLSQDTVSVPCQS", "sequence (P07339 169-412 limits assumed)": "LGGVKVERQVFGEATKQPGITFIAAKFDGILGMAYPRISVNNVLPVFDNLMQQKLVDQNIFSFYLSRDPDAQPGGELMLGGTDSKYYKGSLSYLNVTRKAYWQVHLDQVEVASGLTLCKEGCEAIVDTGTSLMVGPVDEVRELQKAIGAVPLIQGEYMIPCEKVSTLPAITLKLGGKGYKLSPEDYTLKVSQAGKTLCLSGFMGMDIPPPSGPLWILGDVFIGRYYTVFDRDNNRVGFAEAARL", "assay": "Inhibition of human cathepsin D"}}, "data": [{"smiles": "COC(=O)N[C@H](C(=O)NCCCC[C@@H](CO)N(CC(C)C)S(=O)(=O)c1ccc(N)cc1)C(c1ccccc1)c1ccccc1", "note": "[PPL-100]", "values": [{"measurement": "fold change (FC)", "setting": "[1]", "result": 2.4}, {"measurement": "IC50", "setting": "[2]", "result": "> 50", "unit": "µM"}, {"measurement": "IC50", "setting": "[3]", "result": "> 50", "unit": "µM"}]}]}
